Consider seven compounds from patent publication US9980943B2, “Methods of treating muscular dystrophy” (BOARD OF REGENTS OF THE NEVADA SYSTEM OF HIGHER EDUCATION, …, priority 2013, dated 2018).

Structures are written as SMILES.

Holding throughout (format): cell-based, mouse
Assay [1] deals with β-galactosidase in CMV-LacZ C2C12 myotubes. Kind of assay: CMV-LacZ secondary screen in C2C12 myotubes (β-Gal stabilizing assay). The note with it: for CMV-LACZ in Myotubes, signal relative to DMSO: C2C12 CMV-LacZ myotubes, fold relative to DMSO; for CMV-LACZ in Myotubes (β-galactosidase activity relative to DMSO): CMV-LacZ C2C12 myotubes, 96-well format. The source says:
In order to determine compounds that acted to stabilize β-gal in myogenic cells, a CMV-LacZ C2C12 cell line was used in a secondary screen. The EGFP gene from the pEGFP (Clontech) vector was replaced by LACZ PCR product with digests of the vector/PCR product performed using EcoRI (NEB) and NotI (NEB) and ligated using T4 DNA Ligase (NEB) following standard procedures to produce the CMV-LACZ vector. The LACZ gene was generated by PCR from the pBK-RSV (Stratagene) vector using primers LACZ EcoRI F- and LACZ NotI R-. The CMV-LACZ vector was then digested with AfIII (NEB) to linearize the construct, which was then transfected in C2C12 myoblasts using Lipofectamine 2000 (Invitrogen) following the manufacturer's instructions. […] Clonal lines were selected and screened for βgal levels using the myoblast FDG assay.
The assays were used the original 96-well format and new dose-response curves for myoblasts (N=3-6 replicates for each data point), myotubes (N=3-6 replicates for data point), and CMV-LacZ secondary assay (N=2 replicates for each data point) using concentrations of 0.5 μM, 1 μM, 5 μM, 10 μM, 20 μM, and 40 μM (Tables 9-16).

Assay [2] relates to α7 integrin (LacZ reporter in α7βgal+/− myoblasts). Description: Myoblast α7+/LacZ integrin FDG assay (Burkin assay in myoblasts, 96-well). Particulars: α7+/LacZ myoblasts, 96-well.
Assay [3] has as its system α7 integrin (LacZ reporter in α7+/LacZ myotubes). Description: Myotube α7 integrin FDG assay (Burkin assay in myotubes, 96-well). Particulars: myotubes.

As for `O=C(NCCCn1ccnc1)/C(=C/c1cccs1)NC(=O)c1ccco1` [MLS000712769-01], the “CMV-LACZ in Myotubes, signal relative to DMSO” value in assay [1] (5 uM) amounted to 0.9651; in assay [1] (10 uM), 1.071; in assay [1] (20 uM), 0.9141; in assay [1] (40 uM) it was 0.8582. The “Burkin Assay in Myoblasts, value relative to DMSO” value in assay [2] (0.5 uM) is 1.055; in assay [2] (1 uM) it was 1.059; in assay [2] (5 uM), 0.9476; in assay [2] (10 uM), 0.9286; in assay [2] (20 uM), 0.7697; in assay [2] (40 uM), 0.7893. Further, the “Burkin Assay in Myotubes (signal relative to DMSO)” value is reported as 0.9746 in assay [3] (0.5 uM); 0.8428 in assay [3] (1 uM); 1.2524 in assay [3] (5 uM); 0.9038 in assay [3] (10 uM); 0.9219 in assay [3] (20 uM); 0.9817 in assay [3] (40 uM).
Consider `CCCNC(=S)N1CCC(NC(=O)c2ccc(OC)cc2)CC1` [MLS001211651-01], for which the “CMV-LACZ in Myotubes, signal relative to DMSO” value was 0.8714 in assay [1] (5 uM), 0.8433 in assay [1] (10 uM), 0.8465 in assay [1] (20 uM) and 0.977 in assay [1] (40 uM). Further, the “Burkin Assay in Myoblasts, signal relative to DMSO” value in assay [2] (0.5 uM) is 1.061; in assay [2] (1 uM), 1.124; in assay [2] (5 uM) it was 1.011; in assay [2] (10 uM), 0.972; in assay [2] (20 uM), 0.9909; in assay [2] (40 uM), 1.026. The “Burkin Assay in Myotubes, α7 integrin LacZ reporter signal relative to DMSO” value in assay [3] (0.5 uM) is given as 0.8543; in assay [3] (1 uM) it was 0.913; in assay [3] (5 uM) it was 1.116; in assay [3] (10 uM), 1.025; in assay [3] (20 uM), 1.076; in assay [3] (40 uM), 1.027.
On to `COc1ccc2oc(C[S+]([O-])c3ccccc3)c(C(=O)O)c2c1` (stereo not shown) [MLS001208858-01], for which the “CMV-LACZ in Myotubes, signal relative to DMSO” value in assay [1] (5 uM) is 0.944; in assay [1] (10 uM), 0.8018; in assay [1] (20 uM), 0.9471; in assay [1] (40 uM), 0.9238. For the same compound, the “Burkin Assay in Myoblasts, signal relative to DMSO” value is reported as 0.9851 in assay [2] (0.5 uM); 1.003 in assay [2] (1 uM); 0.8892 in assay [2] (5 uM); 0.8759 in assay [2] (10 uM); 0.8548 in assay [2] (20 uM); 0.8425 in assay [2] (40 uM). Also, the “Burkin Assay in Myotubes, α7 integrin LacZ reporter signal relative to DMSO” value in assay [3] (0.5 uM) is 1.095; in assay [3] (1 uM), 0.9977; in assay [3] (5 uM), 1.104; in assay [3] (10 uM), 1.062; in assay [3] (20 uM), 1.1; in assay [3] (40 uM), 1.007.
`Cc1cc2ccccc2n2c(SCC(=O)NCc3cccs3)nnc12` [MLS000526364-01]: the “CMV-LACZ in Myotubes, signal relative to DMSO” value came to 0.9507 in assay [1] (5 uM), 0.953 in assay [1] (10 uM), 1.1735 in assay [1] (20 uM) and 1.1865 in assay [1] (40 uM). The “Burkin Assay in Myoblasts, signal relative to DMSO” value in assay [2] (0.5 uM) turned out to be 0.9747; in assay [2] (1 uM), 0.9502; in assay [2] (5 uM), 1.045; in assay [2] (10 uM), 1.085; in assay [2] (20 uM), 1.114; in assay [2] (40 uM), 1.029. Further, the “Burkin Assay in Myotubes, α7 integrin LacZ reporter signal relative to DMSO” value in assay [3] (0.5 uM) stood at 0.9648; in assay [3] (1 uM), 0.8953; in assay [3] (5 uM), 1.033; in assay [3] (10 uM), 0.8908; in assay [3] (20 uM), 1.358; in assay [3] (40 uM), 0.9162.
On to `OC1(c2ccccc2)C/C(=N\n2cnnc2)C=C1c1ccccc1` (stereo not shown) [MLS000081838-01], for which the “CMV-LACZ in Myotubes, signal relative to DMSO” value in assay [1] (5 uM) stood at 0.9175; in assay [1] (10 uM), 0.8889; in assay [1] (20 uM), 1.018; in assay [1] (40 uM), 0.9697. Moreover, the “Burkin Assay in Myoblasts, value relative to DMSO” value is on record as 1.0627 in assay [2] (0.5 uM); 1.047 in assay [2] (1 uM); 0.9611 in assay [2] (5 uM); 0.9253 in assay [2] (10 uM); 0.9822 in assay [2] (20 uM); 0.9234 in assay [2] (40 uM). The “Burkin Assay in Myotubes (signal relative to DMSO)” value in assay [3] (0.5 uM) worked out at 0.7425; in assay [3] (1 uM), 1.018; in assay [3] (5 uM), 0.9002; in assay [3] (10 uM), 0.8704; in assay [3] (20 uM) it was 1.225; in assay [3] (40 uM) it was 1.036.
For `O=Cc1cnc(N2CCCCC2)s1` [MLS000721730-01], the “CMV-LACZ in Myotubes (β-galactosidase activity relative to DMSO)” value in assay [1] (5 uM) stood at 0.8504; in assay [1] (10 uM) it was 0.9207; in assay [1] (20 uM) it was 0.9311; in assay [1] (40 uM), 1.031. For the same compound, the “Burkin Assay in Myoblasts, value relative to DMSO” value in assay [2] (0.5 uM) came out at 0.8377; in assay [2] (1 uM), 0.8197; in assay [2] (5 uM), 0.8157; in assay [2] (10 uM) it was 0.8824; in assay [2] (20 uM), 0.827; in assay [2] (40 uM) it was 0.9342. Besides, the “Burkin Assay in Myotubes (signal relative to DMSO)” value in assay [3] (0.5 uM) came out at 0.9195; in assay [3] (1 uM), 1.064; in assay [3] (5 uM) it was 0.8563; in assay [3] (10 uM) it was 1.025; in assay [3] (20 uM) it was 0.877; in assay [3] (40 uM), 1.071.
In the case of `O=C(Nc1cc(Br)ccc1O)C1CC(c2ccccc2Cl)=NO1` (stereo not shown) [MLS001202627-01], the “CMV-LACZ in Myotubes (β-galactosidase activity relative to DMSO)” value in assay [1] (5 uM) was 0.9234; in assay [1] (10 uM), 0.9555; in assay [1] (20 uM), 0.9345; in assay [1] (40 uM), 0.735. The “Burkin Assay in Myoblasts, value relative to DMSO” value in assay [2] (0.5 uM) worked out at 1.172; in assay [2] (1 uM), 1.081; in assay [2] (5 uM) it was 0.9923; in assay [2] (10 uM), 0.7739; in assay [2] (20 uM), 0.5427; in assay [2] (40 uM), 0.2179. For the same compound, the “Burkin Assay in Myotubes (signal relative to DMSO)” value in assay [3] (0.5 uM) amounted to 0.9687; in assay [3] (1 uM) it was 0.7692; in assay [3] (5 uM), 1.025; in assay [3] (10 uM), 0.8124; in assay [3] (20 uM), 0.9394; in assay [3] (40 uM), 0.2335.
